Reference: patent US20150344540A1, “NOVEL GLP-1 RECEPTOR AGONISTS WITH CHOLESTEROL EFFLUX ACTIVITY” (NOVO NORDISK A/S, priority 2012, published 2015)
Where a SMILES comes first, the peptide text is derived from it. [ ]: non-standard residue; d: D form. Aib = CC(C)(N)C(=O)O

Tested on: Mouse monocyte/macrophage cell line, RAW 264.7
Assay: Cholesterol efflux assay (3H-cholesterol, macrophage cell line)
Type: cell-based
Conditions: RAW 264.7, 4 hrs incubation, 0.1% human serum albumin, ABCA1-mediated efflux

Going from `CC[C@H](C)[C@H](NC(=O)[C@H](Cc1ccccc1)NC(=O)[C@H](CCC(=O)O)NC(=O)[C@H](CCCCN)NC(=O)[C@@H](NC(=O)C(C)(C)NC(=O)[C@H](CCC(=O)O)NC(=O)CNC(=O)[C@H](CCC(=O)O)NC(=O)[C@H](CC(C)C)NC(=O)[C@H](Cc1ccc(O)cc1)NC(=O)[C@H](CO)NC(=O)[C@H](CO)NC(=O)[C@@H](NC(=O)[C@H](CC(=O)O)NC(=O)[C@H](CO)NC(=O)[C@@H](NC(=O)[C@H](Cc1ccccc1)NC(=O)[C@@H](NC(=O)CNC(=O)[C@H](CCC(=O)O)NC(=O)C(C)(C)NC(=O)[C@@H](N)Cc1c[nH]cn1)[C@@H](C)O)[C@@H](C)O)C(C)C)C(C)C)C(=O)NC(C)(C)C(=O)N[C@@H](Cc1c[nH]c2ccccc12)C(=O)N[C@@H](CC(C)C)C(=O)N[C@H](C(=O)N[C@@H](CCC(=O)O)C(=O)N[C@@H](CCCCN)C(=O)NC(C)(C)C(=O)N[C@@H](CCCCN)C(=O)N[C@@H](CCC(=O)O)C(=O)N[C@@H](Cc1ccccc1)C(=O)N[C@@H](CC(C)C)C(N)=O)C(C)C` [Compound 3, [Aib8,Glu23,Aib24,Val25,Aib30,Glu34,Lys35,Aib36,Lys37]-GLP-1-(7-37)-peptidyl-Glu-Phe-Leu amide] (H-H[Aib]EGTFTSDVSSYLEGE[Aib]VKEFI[Aib]WLVEK[Aib]KEFL-NH2) to `CC[C@H](C)[C@H](NC(=O)[C@H](Cc1ccccc1)NC(=O)[C@H](CC(=O)O)NC(=O)[C@H](CCCCN)NC(=O)[C@@H](NC(=O)[C@H](C)NC(=O)[C@H](CC(=O)O)NC(=O)CNC(=O)[C@H](CCC(=O)O)NC(=O)[C@H](CC(C)C)NC(=O)[C@H](Cc1ccc(O)cc1)NC(=O)[C@H](CO)NC(=O)[C@H](CO)NC(=O)[C@@H](NC(=O)[C@H](CC(=O)O)NC(=O)[C@H](CO)NC(=O)[C@@H](NC(=O)[C@H](Cc1ccccc1)NC(=O)[C@@H](NC(=O)CNC(=O)[C@H](CCC(=O)O)NC(=O)C(C)(C)NC(=O)[C@@H](N)Cc1c[nH]cn1)[C@@H](C)O)[C@@H](C)O)C(C)C)C(C)C)C(=O)N[C@@H](C)C(=O)N[C@@H](Cc1c[nH]c2ccccc12)C(=O)N[C@@H](CC(C)C)C(=O)N[C@H](C(=O)N[C@@H](CCC(=O)O)C(=O)N[C@@H](CCCCN)C(=O)NC(C)(C)C(=O)N[C@@H](CCCCN)C(=O)N[C@@H](CCC(=O)O)C(=O)N[C@@H](Cc1ccccc1)C(=O)N[C@@H](CC(C)C)C(N)=O)C(C)C` [Compound 18, [Aib8,Asp23,Val25,Asp27,Glu34,Lys35,Aib36,Lys37]-GLP-1-(7-37)-peptidyl-Glu-Phe-Leu amide] (H-H[Aib]EGTFTSDVSSYLEGDAVKDFIAWLVEK[Aib]KEFL-NH2), the “4 h Cholesterol Efflux Emax” value rises from 82% to 89%.

Compared with `CC[C@H](C)[C@H](NC(=O)[C@H](Cc1ccccc1)NC(=O)[C@H](CCC(=O)O)NC(=O)[C@H](CCCCN)NC(=O)[C@@H](NC(=O)[C@H](C)NC(=O)[C@H](CCC(=O)O)NC(=O)CNC(=O)[C@H](CCC(=O)O)NC(=O)[C@H](CC(C)C)NC(=O)[C@H](Cc1ccc(O)cc1)NC(=O)[C@H](CO)NC(=O)[C@H](CO)NC(=O)[C@@H](NC(=O)[C@H](CC(=O)O)NC(=O)[C@H](CO)NC(=O)[C@@H](NC(=O)[C@H](Cc1ccccc1)NC(=O)[C@@H](NC(=O)CNC(=O)[C@H](CCC(=O)O)NC(=O)C(C)(C)NC(=O)[C@@H](N)Cc1c[nH]cn1)[C@@H](C)O)[C@@H](C)O)C(C)C)C(C)C)C(=O)N[C@@H](C)C(=O)N[C@@H](Cc1c[nH]c2ccccc12)C(=O)N[C@@H](CC(C)C)C(=O)N[C@H](C(=O)N[C@@H](CCCCN)C(=O)N[C@@H](CCCCN)C(=O)NC(C)(C)C(=O)N[C@@H](CCCCN)C(=O)N[C@@H](CCC(=O)O)C(=O)N[C@@H](Cc1ccccc1)C(=O)N[C@@H](CC(C)C)C(N)=O)C(C)C` [Compound 9, [Aib8,Glu23,Val25,Lys35,Aib36,Lys37]-GLP-1-(7-37)-peptidyl-Glu-Phe-Leu amide] (H-H[Aib]EGTFTSDVSSYLEGEAVKEFIAWLVKK[Aib]KEFL-NH2), `CC[C@H](C)[C@H](NC(=O)[C@H](Cc1ccccc1)NC(=O)[C@H](CCC(=O)O)NC(=O)[C@H](CCCCN)NC(=O)[C@@H](NC(=O)[C@H](C)NC(=O)[C@H](Cc1c[nH]c2ccccc12)NC(=O)CNC(=O)[C@H](CCC(=O)O)NC(=O)[C@H](CC(C)C)NC(=O)[C@H](Cc1ccc(O)cc1)NC(=O)[C@H](CO)NC(=O)[C@H](CO)NC(=O)[C@@H](NC(=O)[C@H](CC(=O)O)NC(=O)[C@H](CO)NC(=O)[C@@H](NC(=O)[C@H](Cc1ccccc1)NC(=O)[C@@H](NC(=O)CNC(=O)[C@H](CCC(=O)O)NC(=O)C(C)(C)NC(=O)[C@@H](N)Cc1c[nH]cn1)[C@@H](C)O)[C@@H](C)O)C(C)C)C(C)C)C(=O)N[C@@H](C)C(=O)N[C@@H](Cc1c[nH]c2ccccc12)C(=O)N[C@@H](CC(C)C)C(=O)N[C@H](C(=O)N[C@@H](CCC(=O)O)C(=O)N[C@@H](CCCCN)C(=O)NC(C)(C)C(=O)N[C@@H](CCCCN)C(=O)N[C@@H](CCC(=O)O)C(=O)N[C@@H](Cc1ccccc1)C(=O)N[C@@H](CC(C)C)C(N)=O)C(C)C` [Compound 21, [Aib8,Trp23,Val25,Glu34,Lys35,Aib36,Lys37]-GLP-1-(7-37)-peptidyl-Glu-Phe-Leu amide] (H-H[Aib]EGTFTSDVSSYLEGWAVKEFIAWLVEK[Aib]KEFL-NH2) is lower in “4 h Cholesterol Efflux Emax” value: 87% for the first, 70% for the second.

Going from `CC[C@H](C)[C@H](NC(=O)[C@H](Cc1ccccc1)NC(=O)[C@H](CC(C)C)NC(=O)[C@H](CCCNC(=N)N)NC(=O)[C@@H](NC(=O)[C@H](C)NC(=O)[C@H](CCC(=O)O)NC(=O)CNC(=O)[C@H](CCC(=O)O)NC(=O)[C@H](CCSC)NC(=O)[C@H](CCC(N)=O)NC(=O)[C@H](CCCCN)NC(=O)[C@H](CO)NC(=O)[C@H](CC(C)C)NC(=O)[C@H](CC(=O)O)NC(=O)[C@H](CO)NC(=O)[C@@H](NC(=O)[C@H](Cc1ccccc1)NC(=O)[C@@H](NC(=O)CNC(=O)[C@H](CCC(=O)O)NC(=O)C(C)(C)NC(=O)[C@@H](N)Cc1c[nH]cn1)[C@@H](C)O)[C@@H](C)O)C(C)C)C(=O)N[C@@H](CCC(=O)O)C(=O)N[C@@H](Cc1c[nH]c2ccccc12)C(=O)N[C@@H](CC(C)C)C(=O)N[C@@H](CCCCN)C(=O)N[C@@H](CC(N)=O)C(=O)N[C@@H](CCCCN)C(=O)NC(C)(C)C(=O)N[C@@H](CC(C)C)C(=O)N[C@@H](CCC(=O)O)C(=O)N[C@@H](Cc1ccccc1)C(=O)N[C@@H](CC(C)C)C(=O)N[C@@H](CCC(=O)O)C(=O)N[C@@H](CC(C)C)C(=O)N[C@@H](CC(C)C)C(N)=O` [Compound 12, [Aib2,Gly16,Lys29,Aib30,Leu31,Glu32,Phe33,Leu34,Glu35,Leu36,Leu371-Exendin-4-(1-37)-peptide amide] (H-H[Aib]EGTFTSDLSKQMEGEAVRLFIEWLKNK[Aib]LEFLELL-NH2; N-terminus assumed) to `CC[C@H](C)[C@H](NC(=O)[C@H](Cc1ccccc1)NC(=O)[C@H](CCC(=O)O)NC(=O)[C@H](CCCCN)NC(=O)[C@@H](NC(=O)[C@H](C)NC(=O)[C@H](CCC(=O)O)NC(=O)CNC(=O)[C@H](CCC(=O)O)NC(=O)[C@H](CC(C)C)NC(=O)[C@H](Cc1ccc(O)cc1)NC(=O)[C@H](CO)NC(=O)[C@H](CO)NC(=O)[C@@H](NC(=O)[C@H](CC(=O)O)NC(=O)[C@H](CO)NC(=O)[C@@H](NC(=O)[C@H](Cc1ccccc1)NC(=O)[C@@H](NC(=O)CNC(=O)[C@H](CCC(=O)O)NC(=O)C(C)(C)NC(=O)[C@@H](N)Cc1c[nH]cn1)[C@@H](C)O)[C@@H](C)O)C(C)C)C(C)C)C(=O)N[C@@H](C)C(=O)N[C@@H](Cc1c[nH]c2ccccc12)C(=O)N[C@@H](CC(C)C)C(=O)N[C@H](C(=O)N[C@@H](CCC(=O)O)C(=O)N[C@@H](CCCCN)C(=O)N[C@@H](CC(C)C)C(=O)N[C@@H](CCCCN)C(=O)N[C@@H](CCC(=O)O)C(=O)N[C@@H](CC(C)C)C(=O)N[C@H](C(N)=O)C(C)C)C(C)C` [Compound 20, [Aib8,Glu23,Val25,Glu34,Lys35,Leu36,Lys37]-GLP-1-(7-37)-peptidyl-Glu-Leu-Val amide] (H-H[Aib]EGTFTSDVSSYLEGEAVKEFIAWLVEKLKELV-NH2; N-terminus assumed), the “4 h Cholesterol Efflux Emax” value rises from 86% to 102%.

In the case of `CC[C@H](C)[C@H](NC(=O)[C@H](Cc1ccccc1)NC(=O)[C@H](CCC(=O)O)NC(=O)[C@H](CCCNC(=N)N)NC(=O)[C@@H](NC(=O)[C@H](C)NC(=O)[C@H](CCC(=O)O)NC(=O)CNC(=O)[C@H](CCC(=O)O)NC(=O)[C@H](CC(C)C)NC(=O)[C@H](Cc1ccc(O)cc1)NC(=O)[C@H](CO)NC(=O)[C@H](CO)NC(=O)[C@@H](NC(=O)[C@H](CC(=O)O)NC(=O)[C@H](CO)NC(=O)[C@@H](NC(=O)[C@H](Cc1ccccc1)NC(=O)[C@@H](NC(=O)CNC(=O)[C@H](CCC(=O)O)NC(=O)C(C)(C)NC(=O)[C@@H](N)Cc1c[nH]cn1)[C@@H](C)O)[C@@H](C)O)C(C)C)C(C)C)C(=O)N[C@@H](C)C(=O)N[C@@H](Cc1c[nH]c2ccccc12)C(=O)N[C@@H](CC(C)C)C(=O)N[C@H](C(=O)N[C@@H](CCC(=O)O)C(=O)N[C@@H](CCCNC(=N)N)C(=O)NC(C)(C)C(=O)N[C@@H](CCCCN)C(=O)N[C@@H](CCC(=O)O)C(=O)N[C@@H](Cc1ccccc1)C(=O)N[C@@H](CC(C)C)C(N)=O)C(C)C` [Compound 19, [Aib8,Glu23,Val25,Arg26,Glu34,Arg35,Aib36,Lys37]-GLP-1-(7-37)-peptidyl-Glu-Phe-Leu amide] (H-H[Aib]EGTFTSDVSSYLEGEAVREFIAWLVER[Aib]KEFL-NH2), the “4 h Cholesterol Efflux Emax” value is reported as 83%.

Same assay, conditions: read-out: 4 h Cholesterol Efflux EC50; RAW 264.7, 4 hrs incubation, 0.1% human serum albumin, ABCA1-mediated efflux (CPT-cAMP induced minus non-induced)

For `CC[C@H](C)[C@H](NC(=O)[C@H](Cc1ccccc1)NC(=O)[C@H](CCC(=O)O)NC(=O)[C@H](CCCCN)NC(=O)[C@@H](NC(=O)[C@H](C)NC(=O)[C@H](CCC(=O)O)NC(=O)CNC(=O)[C@H](CCC(=O)O)NC(=O)[C@H](CC(C)C)NC(=O)[C@H](Cc1ccc(O)cc1)NC(=O)[C@H](CO)NC(=O)[C@H](CO)NC(=O)[C@@H](NC(=O)[C@H](CC(=O)O)NC(=O)[C@H](CO)NC(=O)[C@@H](NC(=O)[C@H](Cc1ccccc1)NC(=O)[C@@H](NC(=O)CNC(=O)[C@H](CCC(=O)O)NC(=O)C(C)(C)NC(=O)[C@@H](N)Cc1c[nH]cn1)[C@@H](C)O)[C@@H](C)O)C(C)C)C(C)C)C(=O)N[C@@H](C)C(=O)N[C@@H](Cc1c[nH]c2ccccc12)C(=O)N[C@@H](CC(C)C)C(=O)N[C@H](C(=O)N[C@@H](CCC(=O)O)C(=O)N[C@@H](CCCCN)C(=O)N[C@@H](CC(C)C)C(=O)N[C@@H](CCCCN)C(=O)N[C@@H](CCC(=O)O)C(=O)N[C@@H](CC(C)C)C(=O)N[C@H](C(N)=O)C(C)C)C(C)C` [Compound 20, [Aib8,Glu23,Val25,Glu34,Lys35,Leu36,Lys37]-GLP-1-(7-37)-peptidyl-Glu-Leu-Val amide] (H-H[Aib]EGTFTSDVSSYLEGEAVKEFIAWLVEKLKELV-NH2; N-terminus assumed), the EC50 was 560 nM.
